“Also recorded” adds a separate entry of the source.
Experiments:
NLRP1^DR = test: NLRP1 PYD-DR1 / NLRP1^DR phosphorylation (GFP fusion, immunoblot, PhosTag SDS-PAGE) in N-TERT cells; assay type: cell-based, human; conditions: NLRP1 KO N-TERT cells expressing GFP-tagged NLRP1^DR; various kinase inhibitors
Text: (§1) The following antibodies were used in this study: cleaved PARP1 (Abclonal, #WH162766), Cleaved CASP3 (Abclonal, #WH154646), Full length GSDMD-FL (Abcam, #ab210070), IL1β p17 specific (CST, #83186S), CARD8 (Abcam, CARD8-NT: ab19485, CARD8-CT: ab241186), DPP9 (Abcam, ab226334), c-Myc (Santa Cruz Biotechnology, #sc-40), HA tag (Santa Cruz Biotechnology, #sc-805), GAPDH (Santa Cruz Biotechnology, #sc-47724), ASC (Adipogen, #AL-177), CASP1 (Santa Cruz Biotechnology, #sc-622), 11_1B (R&D systems, #AF-201), FLAG (SigmaAldrich, #F3165), NLRP1 (R&D systems, #AF6788), IL18 (Abcam ab207324), cleaved GSDMD-NT (Asp275) (Cell Signaling Technology, #36425), RPL31 (Abclonal, #WH162766), CASP7 (Abcam, ab255818), CASP8 (Abcam, ab32397), cleaved CASP3 (Cell Signaling Technology, #9664). All horseradish peroxidase (HRP)— conjugated secondary antibodies were purchased from Jackson Immunoresearch (goat anti-mouse IgG: 115-035-166; goat anti-rabbit IgG: 111-035-144; and donkey anti-goat IgG: 705-005-147). Blue-Native PAGE was carried out using the Native-PAGE system (ThermoFisher) with 10-20 μg of total lysate. For SDS-PAGE using whole cell lysates, cells were resuspended in tris-buffered saline 1% NP-40 with protease inhibitors (Thermo Scientific, #78430). Protein concentration was determined using the Bradford assay (Thermo Scientific, #23200) and […] of protein loaded, a part from cleaved GSDMD-NT visualisation where […] of protein was used. All primary antibodies were used at 250 ng/ml. Visualisation of ASC oligomerization was previously described (Robinson et al., 2020). For analysis of IL1β and IL-18 cleavage in the media by immunoblotting, samples were concentrated using filtered centrifugation (Merck, Amicon Ultra, #UFC5003BIK). Protein samples were run using immunoblotting, and then visualized using a ChemiDoc Imaging system (Bio-Rad). PhosTag SDS-PAGE was carried out using homemade 10% SDS-PAGE gel, with addition of Phos-tag Acrylamide (Wako Chemicals, AAL-107) to a final concentration of 30 μM and manganese chloride(II) (Sigma-Aldrich, #63535) to 60 μM.
Cells were directly harvested using Laemmli buffer, lysed with an ultrasonicator, and loaded into the Phos-tag gel to run. Once the run was completed, the polyacrylamide gel was washed in transfer buffer with 10 mM EDTA twice, subsequently washed without EDTA twice, blotted onto 0.45 μm PVDF membranes (Bio-rad), blocked with 3% milk, and incubated with primary and corresponding secondary antibodies.

ZAKα = ZAKα (Homo sapiens, UniProt Q9NYL2); conditions: cited from earlier work
Sequence of ZAKα (Q9NYL2 whole entry): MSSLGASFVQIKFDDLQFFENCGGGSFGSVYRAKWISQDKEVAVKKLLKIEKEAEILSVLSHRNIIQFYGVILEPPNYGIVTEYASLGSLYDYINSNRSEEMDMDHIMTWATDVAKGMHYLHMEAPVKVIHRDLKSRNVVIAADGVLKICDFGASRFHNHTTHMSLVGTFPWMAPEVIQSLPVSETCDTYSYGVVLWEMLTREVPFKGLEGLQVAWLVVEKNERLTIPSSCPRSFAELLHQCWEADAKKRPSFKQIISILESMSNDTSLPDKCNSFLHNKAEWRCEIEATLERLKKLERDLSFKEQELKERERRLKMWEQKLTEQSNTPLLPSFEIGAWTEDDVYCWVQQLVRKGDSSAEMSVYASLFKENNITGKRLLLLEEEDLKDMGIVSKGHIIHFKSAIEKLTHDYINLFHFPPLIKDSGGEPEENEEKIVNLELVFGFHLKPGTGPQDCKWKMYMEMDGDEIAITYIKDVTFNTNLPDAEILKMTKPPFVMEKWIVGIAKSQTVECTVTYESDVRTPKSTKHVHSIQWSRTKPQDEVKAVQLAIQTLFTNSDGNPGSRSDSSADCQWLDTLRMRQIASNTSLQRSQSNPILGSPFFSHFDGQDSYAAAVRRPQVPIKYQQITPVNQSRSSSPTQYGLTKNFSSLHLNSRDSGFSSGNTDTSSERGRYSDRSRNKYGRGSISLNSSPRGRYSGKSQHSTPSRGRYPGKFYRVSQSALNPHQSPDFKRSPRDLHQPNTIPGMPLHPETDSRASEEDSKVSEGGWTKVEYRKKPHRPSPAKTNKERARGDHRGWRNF

human skin explants = test: UVB-induced IL1β in human skin explants; conditions: UVB 100 or 250 mJ/cm^2, harvest 24 hours later
Text: Waste surgical skin tissues from abdomen and breast were collected with appropriate informed consent of the patients and sent to the Asian Skin Biobank (ASB worldwidewebdota-stardotedudotsg/sris/technology-platforms/asian-skin-biobank) at the Skin Research Institute of Singapore (SRIS) (under A*STAR IRB 2020-209). Fresh skin tissue was cleaned in solutions of HBSS with decreasing concentrations of Penicillin, Streptomycin and Fungizone. Then 8-mm skin biopsies were punched and submerged in culture media. Skin explants were immediately irradiated with UVB or treated with VbP.
(§2) For UVA and UVB irradiation experiments, cells were seeded 24 hours prior to irradiation, and washed once in phosphate buffered saline pH 7.4 before being exposed to indicated dose of irradiation using a BIO-SUN microprocessor controlled, cooled UV irradiation system (BIO-SUN, Vilber). After exposure, PBS was replaced by keratinocyte medium and cells were incubated for indicated time.
To measure secreted cytokine and chemokine levels a human IL1β enzyme linked immunosorbent assay (ELISA) kit (BD, #557953), human IL-18 ELISA kit (MBL, #7620) or an Immune Monitoring 65-Plex Human ProcartaPlex Panel (EPX650-10065-901) were used according to manufacturer's protocols. […]

293T-ASC-GFP-NLRP1 = assay type: cell-based, human; conditions: 293T-NLRP1-ASC-GFP reporter cells; BTZ 0.5 μM, MLN4924 0.25 μM
N-TERT cells [1] = test: Secreted IL1β / inflammasome activation in N-TERT cells; assay type: cell-based, human
Description: (§3) To measure secreted cytokine and chemokine levels a human IL1β enzyme linked immunosorbent assay (ELISA) kit (BD, #557953), human IL-18 ELISA kit (MBL, #7620) or an Immune Monitoring 65-Plex Human ProcartaPlex Panel (EPX650-10065-901) were used according to manufacturer's protocols. Further analysis of Luminex or ELISA profiling of samples was performed using heatmap and PCA analysis on Clustervis (biitdotcsdotutdotee/clustvis/) [Somani et al., Proceeding of SSIC (2019)].
as §1

NLRP1-NT = test: NLRP1 cleavage / NLRP1-NT level by immunoblot; assay type: cell-based, human
Text: as §1

N-TERT cells [2] = test: UVB triggered cell death and IL-1beta release in N-TERT cells; assay type: cell-based, human
Description: as §2, §3

[3] = test system: immortalized keratinocytes (N-TERT); test: Pyroptosis / apoptosis in N-TERT keratinocytes (morphology, ASC-GFP, PI, Annexin V, immunoblot); assay type: cell-based, human; conditions: for mode of cell death (apoptosis / pyroptosis): Annexin V staining and PI inclusion, immunoblot markers
Text: as §1
N-TERT-ASC-GFP cells were seeded at a cell density of 3000 cells/well of a 96 black well plate (PerkinElmer, CellCarrier-96 Ultra, #6055300). The next morning cells were treated with chemicals for 6 h or treated in the evening for 24 h before staining. 1 hour before observing the cells on the microscope the cells were stained with 1 μg/ml dilution of propidium iodide (PI, Abcam #ab14083), 10 ng/ml dilution of Hoechst 33342 (Life Technologies, #H21492) or stained with Annexin V Alexa Flour 647 (Life technologies, #A23204) according to the manufacturer's protocol. Stained cells were then imaged on a high content screening microscope (Perkin Elmer Operetta CLS imaging system). Images were then stored and analyzed using the Harmony software (Version 6). Fluorescent and brightfield images acquired on the Operetta high content screening microscope were further analyzed using a scoring system to categorize the percentages of live, apoptotic and pyroptotic cells. For 3 fields of view per treatment the number of live cells per field was counted from the merge of the brightfield and ASC-GFP channels. Only cells which contained ASC-GFP throughout the cytoplasm and nucleus were classed as “live”. The number of pyroptotic cells was calculated using the merge of the brightfield and ASC-GFP channels. Only the cells with GFP specks were classed as “pyroptotic”. The number of apoptotic cells was calculated using the merge of the brightfield, ASC-GFP and Annexin V channels. Cells that were stained positive for Annexin V but without a GFP speck were classified as “apoptotic”. Images of ASC-GFP specks were acquired in 3 random fields in 4′,6-diaminidino-2-phenylindole (DAPI, 358 nm/461) and GFP (469 nm/525 nm) channels using the EVOS microscope (FL Auto M5000, #AM F5000) according to the manufacturer's protocol. […]

3D organotypic skin = test: Secreted cytokines/chemokines from 3D organotypic skin (ELISA, Luminex); assay type: cell-based, human
Description: Organotypic cultures were generated by adapting a previously described protocol (Arnette et al., 2016). Briefly, 2 ml of collagen I (4 mg/ml; Corning, #354249) mixed with 7.5×10^5 human fibroblasts were allowed to polymerize over 1-m1 acellular collagen I in 6-well culture inserts (Falcon, #353102) placed in 6-well deep well plate (Falcon, #355467). After 24 hours, 1×10^6 primary human keratinocytes were seeded into the inserts and kept submerged in a 3:1 DMEM (Hyclone, #SH30243.01) and F12 (Gibco, #31765035) mixture with 10% FBS (Hyclone, #SV30160.03), 100 U/ml penicillin-streptomycin (Gibco, #15140122), 10 μM Y-27632 (Tocris, #1254), 10 ng/ml EGF (Sigma-Aldrich, #E9644), 1×10^−10 M cholera toxin (Enzo, #BML-G117-001), 0.4 μg/ml hydrocortisone (Sigma-Aldrich, #H0888), 0.0243 mg/ml adenine (Sigma-Aldrich, #A2786), 5 μg/ml insulin (Sigma-Aldrich, #12643), 5 μg/ml transferrin (Sigma-Aldrich, #T2036) and 2×10^−9 M 3,3′,5′-triiodo-L-thyronine (Sigma-Aldrich, #T6397). After another 24 hours, the organotypic cultures were then raised at the air-liquid interface and fed with the submerged media (without Y-27632 and EGF) below the insert to induce epidermal differentiation. The air-lifting medium was replaced every 2 days and treatments began 10-14 days after airlifting. Organotypic cultures were then harvested 24 hours after treatment and formalin fixed for 24 hours. […]

[4] = test system: 3D human organotypic skin; test: 3D organotypic skin histology and cleaved GSDMD-NT immunostaining; assay type: cell-based; conditions: immunostaining
Description: Organotypic cultures were generated by adapting a previously described protocol (Arnette et al., 2016). Briefly, 2 ml of collagen I (4 mg/ml; Corning, #354249) mixed with 7.5×10^5 human fibroblasts were allowed to polymerize over 1-m1 acellular collagen I in 6-well culture inserts (Falcon, #353102) placed in 6-well deep well plate (Falcon, #355467). After 24 hours, 1×10^6 primary human keratinocytes were seeded into the inserts and kept submerged in a 3:1 DMEM (Hyclone, #SH30243.01) and F12 (Gibco, #31765035) mixture with 10% FBS (Hyclone, #SV30160.03), 100 U/ml penicillin-streptomycin (Gibco, #15140122), 10 μM Y-27632 (Tocris, #1254), 10 ng/ml EGF (Sigma-Aldrich, #E9644), 1×10^−10 M cholera toxin (Enzo, #BML-G117-001), 0.4 μg/ml hydrocortisone (Sigma-Aldrich, #H0888), 0.0243 mg/ml adenine (Sigma-Aldrich, #A2786), 5 μg/ml insulin (Sigma-Aldrich, #12643), 5 μg/ml transferrin (Sigma-Aldrich, #T2036) and 2×10^−9 M 3,3′,5′-triiodo-L-thyronine (Sigma-Aldrich, #T6397). After another 24 hours, the organotypic cultures were then raised at the air-liquid interface and fed with the submerged media (without Y-27632 and EGF) below the insert to induce epidermal differentiation. The air-lifting medium was replaced every 2 days and treatments began 10-14 days after airlifting. Organotypic cultures were then harvested 24 hours after treatment and formalin fixed for 24 hours. Fixed tissues were then embedded into wax for histological purposes.
For immunohistochemistry staining of cleaved N-terminal GSDMD a previously established protocol with modifications was used [Wang et al., Cell 180:941-955.e20 (2020)]. Briefly, 5 μm formalin fixed and paraffin embedded sections were deparaffinized and rehydrated through a series of alcohol. The sections were then rehydrated in an antigen retrieval buffer (Dako, Tris-EDTA, pH 9). Sections were then blocked in goat serum for 20 mins at RT before primary antibody incubated overnight at 4° C. Immunostaining was visualised using DAB substrate and chromogen detection kit (Dako, #K3468). Sections were then counterstained with Myer's Hematoxylin.

ASC = test: Phosphorylation of inflammasome adaptor ASC; assay type: cell-based, human; conditions: data not shown
HB-EGF = HB-EGF expression by RNAseq after TNFα priming; assay type: cell-based, human; conditions: FKPM by RNAseq
Description: Library preparation, QC and high-throughput sequencing were provided by Macrogen, Singapore. RNA isolation and library preparation was carried out as previously described [Robinson et al., Science (2020)].

COc1cc(O)c2c(c1)/C=C/C[C@H](O)[C@H](O)C(=O)/C=C\C[C@H](C)OC2=O [5-Z-7-oxozeanol, 5Z-7-Oxozeaenol]
effect on ANS-triggered NLRP1 hyperphosphorylation (NLRP1^DR): can effectively block ANS-triggered NLRP1 hyperphosphorylation
potency against ZAKα compared with TAK1 (ZAKα): almost the same potency as its reported target TAK1

C=CC(=O)N1CCCC(c2ccnc(Nc3cc(C(=O)Nc4cc(-n5cnc(C)c5)cc(C(F)(F)F)c4)ccc3C)n2)C1 (stereo not drawn) [M443, 4-methyl-N-[3-(4-methylimidazol-1-yl)-5-(trifluoromethyl)phenyl]-3-[[4-(1-prop-2-enoylpiperidin-3-yl)pyrimidin-2-yl]amino]benzamide]
effect on ANS-triggered NLRP1 hyperphosphorylation (NLRP1^DR): can effectively block ANS-triggered NLRP1 hyperphosphorylation
effect on UVB-induced IL1β / NLRP1 activation (human skin explants): reduction in UVB-induced IL1β; also recorded: effective at blocking UVB induced NLRP1 activation and IL1beta release

NS(=O)(=O)OC[C@@H]1C[C@@H](n2ccc3c(N[C@H]4CCc5ccccc54)ncnc32)C[C@@H]1O [MLN4924, ((1S,2S,4R)-4-(4-(((S)-2,3-dihydro-1H-inden-1-yl)amino)-7H-pyrrolo[2,3-d]pyrimidin-7-yl)-2-hydroxycyclopentyl)methyl sulfamate]
effect on ANS- and TNFα+DT-triggered NLRP1 activation (293T-ASC-GFP-NLRP1): abrogated ANS- and TNFα+DT-triggered NLRP1 activation
effect on ANS- and TNFα+DT-triggered NLRP1 activation (N-TERT cells [1]; N-TERTs, BTZ 0.5 μM, MLN4924 0.25 μM): abrogated ANS- and TNFα+DT-triggered NLRP1 activation
effect on ribotoxin-triggered NLRP1-NT destabilization (NLRP1-NT): could be blocked
effect on UVB-dependent NLRP1 activation (N-TERT cells [2]): abrogated
effect on UVB triggered cell death (PI positive cells) (N-TERT cells [2]; 18-hour incubation): blocks UVB triggered cell death and IL-1beta release
effect on UVB triggered IL-1beta release (N-TERT cells [2]; IL1β ELISA of cell media): blocks UVB triggered cell death and IL-1beta release

COc1ccc(C[C@H](N)C(=O)N[C@H]2[C@@H](O)[C@H](n3cnc4c(N(C)C)ncnc43)O[C@@H]2CO)cc1 [PURO, Puromycin]
mode of cell death (apoptosis / pyroptosis) [3]: kills cells exclusively via apoptosis
chemokine/cytokine profile versus untreated (3D organotypic skin): very few cytokines/chemokines differed

CC(C)[C@H](N)C(=O)N1CCC[C@H]1B(O)O [VbP, Talabostat]
mode of cell death (apoptosis / pyroptosis) [3]: exclusively triggers pyroptosis
time to induce detectable pyroptosis ([3]; wild-type N-TERT cells, PI positive cells): at least 5 hours
IL1β secretion and pyroptotic death in ZAKα KO cells (N-TERT cells [1]; ZAKα KO N-TERT cells): remained fully sensitive
cleaved GSDMD N-terminal fragment at the cell membrane [4]: prominently enriched at the cell membrane
phosphorylation of ASC (ASC): not phosphorylated

TNFα
increased expression of DT entry receptor HB-EGF (HB-EGF): > 5 fold
